Assay results reported in patent US8012967B2, “Minor groove binders” (University of Strathclyde, priority 2006, dated 2011).
Read-outs that look alike come from different tables or passages of the source.

Key:
Format in all cases: cell-based
[1] = system: Candida albicans (NCPF3179); assay: MIC, Candida albicans; conditions: Candida albicans, NCPF3179, read-out: Minimum inhibitory concentrations (MICs), C. albicans
Description: (§1) The effects of compounds of the invention in relation to inhibiting the growth of various microorganisms was determined using methods known to those skilled in the art, for example in vitro methods as described in J. Med. Chem. 47, 2133-2156 (2004) and in vivo methods as described in J. Med. Microbiol. 46, 208-213 (1997), the disclosures of which documents are hereby incorporated by reference. In particular, minimum inhibitory concentrations (MICs) against microorganisms (e.g. S. Aureus, Streptococcus faecalis, Aspergillus niger, Candida albicans or Mycobacterium fortuitum) for compounds of the invention may be measured using procedures such as those described in A. J. Drummond and […] development of microbiological methods for phytochemical screening” Recent Res. Devel. […] The test wells on each 96 well microtitre plate were initially inoculated with culture medium (100 μL) using Mueller-Hinton Broth for antibacterial assays and Sabouraud Broth for antifungal assays. A solution of each test sample (100 μL) was added to one row of each plate and a series of doubling dilutions made for successive rows. Incubation was at 37° C. for antibacterial assay and 25° C. for antifungal assay. […] From the observed pattern of colour, the MIC was determined. All tests included sterility and growth controls.

[2] = system: Staphylococcus aureus Strain 1 (BSAC04(1)) (Clinical isolate from Glasgow Royal Infirmary); assay: MIC, Staphylococcus aureus Strain 1; conditions: Staphylococcus aureus, read-out: Minimum inhibitory concentrations (MICs), S aureus 1
Description: The effects of compounds of the invention in relation to inhibiting the growth of various microorganisms was determined using methods known to those skilled in the art, for example in vitro methods as described in J. Med. Chem. 47, 2133-2156 (2004) and in vivo methods as described in J. Med. Microbiol. 46, 208-213 (1997), the disclosures of which documents are hereby incorporated by reference.
In particular, minimum inhibitory concentrations (MICs) against microorganisms (e.g. S. Aureus, Streptococcus faecalis, Aspergillus niger, Candida albicans or Mycobacterium fortuitum) for compounds of the invention may be measured using procedures such as those described in A. J. Drummond and R. D. Waigh “The development of microbiological methods for phytochemical screening” Recent Res. Devel. Phytochem. 4, 143-152 (2000), the disclosures of which document are hereby incorporated by reference.
Sample dilutions were typically prepared by dissolving the test sample (2 mg) in sterile water (10 mL) to provide a working concentration of 200 μg/ml. The test wells on each 96 well microtitre plate were initially inoculated with culture medium (100 μL) using Mueller-Hinton Broth for antibacterial assays and Sabouraud Broth for antifungal assays. A solution of each test sample (100 μL) was added to one row of each plate and a series of doubling dilutions made for successive rows. Incubation was at 37° C. for antibacterial assay and 25° C. for antifungal assay. […] From the observed pattern of colour, the MIC was determined. All tests included sterility and growth controls.

[3] = system: Mycobacter fortuitum (NCTC 10394); assay: MIC, Mycobacter fortuitum; conditions: Mycolicibacterium fortuitum, NCTC10394, read-out: Minimum inhibitory concentrations (MICs), M. fortuitum
Description: as §1

[4] = system: Streptococcus faecalis (NCTC 775); assay: MIC, Streptococcus faecalis; conditions: Enterococcus faecalis, NCTC775, read-out: Minimum inhibitory concentrations (MICs), St. faecalis
Description: as §1

[5] = system: Aspergillus niger (IMI 1745); assay: MIC, Aspergillus niger; conditions: Aspergillus niger, read-out: Minimum inhibitory concentrations (MICs), A. niger
Description: as §1

[6] = system: Staphylococcus aureus Strain 2 (NCTC 6571); assay: MIC, Staphylococcus aureus Strain 2; conditions: Staphylococcus aureus, NCTC6571, read-out: Minimum inhibitory concentrations (MICs), S. aureus 2
Description: as §1

[7] = value in parentheses, na = not active

Structure (SMILES): Cn1cc(NC(=O)c2cc(NC(=O)c3cc(/C=C/c4cnc5ccccc5c4)cn3C)cn2C)cc1C(=O)NCCN1CCOCC1 [Example 10, 1-Methyl-N-[1-methyl-5-({[1-methyl-5-({[2-(4-morpholinyl)ethyl]amino}-carbonyl)-1H-pyrrol-3-yl]amino}carbonyl)-1H-pyrrol-3-yl]-4-[(E)-2-(3-quinolinyl)ethenyl]-1H-pyrrole-2-carboxamide]
- MIC [1, 7]: 100 µg/mL
- MIC ([1]; value outside parentheses): 116 µM
- MIC [2, 7]: 4 µg/mL
- MIC ([2]; value outside parentheses): 5.3 µM
- MIC [3, 7]: 100 µg/mL
- MIC ([3]; value outside parentheses): 116 µM
- MIC [4, 7]: 12.5 µg/mL
- MIC ([4]; value outside parentheses): 15 µM

Structure (SMILES): CC(C)CCc1sc(NC(=O)c2cc(NC(=O)c3ccc(/C=C/c4cnc5ccccc5c4)cc3)cn2C)nc1C(=O)NCCN1CCOCC1 [Example 16, 5-Isopentyl-2-({[1-methyl-4-({4-[(E)-2-(3-quinolinyl)ethenyl]benzoyl}amino)-1H-pyrrol-2-yl]carbonyl}amino)-N-[2-(4-morpholinyl)ethyl]-1,3-thiazole-4-carboxamide]
- MIC [5, 7]: 100 µg/mL
- MIC ([5]; value outside parentheses): 122 µM
- MIC [1, 7]: 50 µg/mL
- MIC ([1]; value outside parentheses): 61 µM
- MIC [3, 7]: 100 µg/mL
- MIC ([3]; value outside parentheses): 122 µM

Structure (SMILES): CC(C)CCc1sc(NC(=O)c2cc(NC(=O)c3ccc(/C=C/c4cc5ccccc5nc4Cl)cc3)cn2C)nc1C(=O)NCCN1CCOCC1 [Example 17, 2-({[4-({4-[(E)-2-(2-Chloro-3-quinolinyl)ethenyl]benzoyl}amino)-1-methyl-1H-pyrrol-2-yl]carbonyl}amino)-5-isopentyl-N-[2-(4-morpholinyl)ethyl]-1,3-thiazole-4-carboxamide]
- MIC [1, 7]: 100 µg/mL
- MIC ([1]; value outside parentheses): 117 µM
- MIC [3, 7]: 100 µg/mL
- MIC ([3]; value outside parentheses): 117 µM

Structure (SMILES): CC(C)CCc1sc(NC(=O)c2cc(NC(=O)c3ccc(/C=C/c4cc5ccccc5nc4On4nnc5ccccc54)cc3)cn2C)nc1C(=O)NCCN1CCOCC1 [Example 18, 2-[({4-[(4-{(E)-2-[2-(1H-1,2,3-Benzotriazol-1-yloxy)-3-quinolinyl]ethenyl}-benzoyl)amino]-1-methyl-1H-pyrrol-2-yl}carbonyl)amino]-5-isopentyl-N-[2-(4-morpholinyl)ethyl]-1,3-thiazole-4-carboxamide]
- MIC [1, 7]: 100 µg/mL
- MIC ([1]; value outside parentheses): 169 µM
- MIC [3, 7]: 100 µg/mL
- MIC ([3]; value outside parentheses): 169 µM

Structure (SMILES): COc1ccc(/C=C/c2ccc3cc(C(=O)Nc4cc(C(=O)Nc5cc(C(=O)NCCN6CCOCC6)n(C)c5)n(C)c4)ccc3n2)cc1 [Example 23, 2-[(E)-2-(4-Methoxyphenyl)ethenyl]-N-[1-methyl-5-({[1-methyl-5-({[2-(4-morpholinyl)ethyl]amino}carbonyl)-1H-pyrrol-3-yl]amino}carbonyl)-1H-pyrrol-3-yl]-6-quinolinecarboxamide]
- MIC [5, 7]: 50 µg/mL
- MIC ([5]; value outside parentheses): 64 µM
- MIC [1, 7]: 100 µg/mL
- MIC ([1]; value outside parentheses): 129 µM
- MIC [2, 7]: 4 µg/mL
- MIC ([2]; value outside parentheses): 5.2 µM
- MIC [3, 7]: 100 µg/mL
- MIC ([3]; value outside parentheses): 129 µM
- MIC [4, 7]: 25 µg/mL
- MIC ([4]; value outside parentheses): 32 µM

Structure (SMILES): CSc1ccc(/C=C/c2ccc3cc(C(=O)Nc4cc(C(=O)Nc5cc(C(=O)NCCN6CCOCC6)n(C)c5)n(C)c4)ccc3n2)cc1 [Example 24, N-[1-Methyl-5-({[1-methyl-5-({[2-(4-morpholinyl)ethyl]amino}carbonyl)-1H-pyrrol-3-yl]amino}carbonyl)-1H-pyrrol-3-yl]-2-{(E)-2-[4-(methylsulfanyl)-phenyl]ethenyl}-6-quinolinecarboxamide]
- MIC [5, 7]: 100 µg/mL
- MIC ([5]; value outside parentheses): 126 µM
- MIC [1, 7]: 100 µg/mL
- MIC ([1]; value outside parentheses): 126 µM
- MIC [2, 7]: 4 µg/mL
- MIC ([2]; value outside parentheses): 5.1 µM
- MIC [6, 7]: 100 µg/mL
- MIC ([6]; value outside parentheses): 126 µM
- MIC [4, 7]: 100 µg/mL
- MIC ([4]; value outside parentheses): 26 µM

Structure (SMILES): CSc1ccc(/C=C/c2ccc(C(=O)Nc3cc(C(=O)Nc4cc(C(=O)NCCN5CCOCC5)n(C)c4)n(C)c3)cn2)cc1 [Example 25, N-[1-methyl-5-({[1-methyl-5-({[2-(4-morpholinyl)ethyl]amino}carbonyl)-1H-pyrrol-3-yl]amino}carbonyl)-1H-pyrrol-3-yl]-6-{(E)-2-[4-(methylsulfanyl)-phenyl]ethenyl}nicotinamide]
- MIC [5, 7]: 100 µg/mL
- MIC ([5]; value outside parentheses): 135 µM
- MIC [1, 7]: 50 µg/mL
- MIC ([1]; value outside parentheses): 67 µM
- MIC [2, 7]: 0.5 µg/mL
- MIC ([2]; value outside parentheses): 0.67 µM
- MIC [3, 7]: 100 µg/mL
- MIC ([3]; value outside parentheses): 135 µM
- MIC [6, 7]: 50 µg/mL
- MIC ([6]; value outside parentheses): 67 µM
- MIC [4, 7]: 25 µg/mL
- MIC ([4]; value outside parentheses): 34 µM
